Measurements reported in patent publication US6737383B1, “Herbicidal oxadiazolidines” (priority 1999, dated 2004).

Experiments:
soybean = experiment: Test B pre/postemergence soybean; format: in vivo, Glycine max
In short: (§1)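 Herbicidal effect was estimated by eye on a ten-point control scale after plants spent twelve to sixteen days in a greenhouse following soil or foliar treatment. Foliar sprays targeted plants at one to four leaves; all doses were formulated in a non-phytotoxic solvent with surfactant.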

wild oat = experiment: Test B pre/postemergence wild oat; format: in vivo, Avena fatua
In short: as §1

rape = experiment: Test B pre/postemergence rape; format: in vivo, Brassica napus
In short: as §1

morningglory = experiment: Test B pre/postemergence morningglory; format: in vivo, Ipomoea hederacea
In short: as §1

purple nutsedge = experiment: Test B pre/postemergence purple nutsedge; format: in vivo, Cyperus rotundus
In short: as §1

giant foxtail = experiment: Test B pre/postemergence giant foxtail; format: in vivo, Setaria faberii
In short: as §1

wheat = experiment: Test B pre/postemergence wheat; format: in vivo, Triticum aestivum
In short: as §1

smallflower flatsedge = experiment: Test B flood test smallflower flatsedge; format: in vivo, Cyperus difformis
In short: (§2)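 Read-out is a visual response score from 0 (no effect) to 10 (complete control), assigned by comparison with untreated controls. Treatment was applied at the 2-leaf stage, and plants stayed in the greenhouse for twelve to sixteen days before scoring.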

sugar beet = experiment: Test B pre/postemergence sugar beet; format: in vivo, Beta vulgaris
In short: as §1

velvetleaf = experiment: Test B pre/postemergence velvetleaf; format: in vivo, Abutilon theophrasti
In short: as §1

pigweed = experiment: Test B pre/postemergence pigweed; format: in vivo, Amaranthus retroflexus
In short: as §1

bedstraw = experiment: Test B pre/postemergence bedstraw; format: in vivo, Galium aparine
In short: as §1

duck salad = experiment: Test B flood test duck salad; format: in vivo, Heteranthera limosa
In short: as §2

blackgrass = experiment: Test B pre/postemergence blackgrass; format: in vivo, Alopecurus myosuroides
In short: as §1

bamyardgrass = experiment: Test B flood test barnyardgrass; format: in vivo, Echinochloa crus-galli
In short: as §2

rice = experiment: Test B flood test rice; format: in vivo, Oryza sativa
In short: as §2

[1] = Postemergence, Rate 62 g/ha, scale 0 to 10, 0 is no effect, 10 is complete control
[2] = Postemergence, Rate 250 g/ha, scale 0 to 10, 0 no effect, 10 complete control
[3] = Preemergence, Rate 62 g/ha, scale 0 to 10 (0 no effect, 10 complete control)
[4] = Preemergence, Rate 125 g/ha, scale 0 to 10 (0 no effect, 10 complete control)
[5] = Preemergence, Rate 250 g/ha, scale of 0 to 10 where 0 is no effect and 10 is complete control
[6] = Preemergence, Rate 500 g/ha, scale 0 (no effect) to 10 (complete control)
[7] = Rate 125 g/ha, Postemergence, scale 0 to 10, 0 no effect, 10 complete control
[8] = Rate 500 g/ha, Postemergence, scale 0 to 10, 0 no effect, 10 complete control
[9] = Rate 125 g/ha, Postemergence section (flood test species), scale 0 to 10, 0 no effect, 10 complete control
[10] = Rate 500 g/ha, listed under Postemergence (flood test species), scale 0 to 10, 0 no effect, 10 complete control
[11] = flood test, listed under Postemergence, Rate 250 g/ha, scale 0 to 10, 0 no effect, 10 complete control

Cc1cccc(C(C)C)c1-n1c(=O)on(C(=O)N(c2ccc(Cl)cc2)C(C)C)c1=O [Compound 64]
Soybean plant response rating (soybean; [1]): 0 | Soybean plant response rating (soybean; [2]): 0 | Soybean plant response rating (soybean; [3]): 0 | Plant response rating, Soybean (soybean; [4]): 0 | Plant response rating, Soybean (soybean; [5]): 0 | Soybean plant response rating (soybean; [6]): 0 | Soybean plant response rating (soybean; [7]): 0 | Soybean plant response rating (soybean; [8]): 1 | Wild oats plant response rating (wild oat; [1]): 0 | Wild oats plant response rating (wild oat; [2]): 0 | Wild oats plant response rating (wild oat; [3]): 0 | Plant response rating, Wild oats (wild oat; [4]): 0 | Plant response rating, Wild oats (wild oat; [5]): 0 | Wild oats plant response rating (wild oat; [6]): 0 | Wild oats plant response rating (wild oat; [7]): 0 | Wild oats plant response rating (wild oat; [8]): 0 | Rape plant response rating (rape; [1]): 0 | Rape plant response rating (rape; [2]): 0 | Rape plant response rating (rape; [3]): 0 | Plant response rating, Rape (rape; [4]): 0 | Plant response rating, Rape (rape; [5]): 0 | Rape plant response rating (rape; [6]): 0 | Rape plant response rating (rape; [7]): 0 | Rape plant response rating (rape; [8]): 0 | Morningglory plant response rating (morningglory; [1]): 0 | Morningglory plant response rating (morningglory; [2]): 0 | Morningglory plant response rating (morningglory; [3]): 0 | Plant response rating, Morningglory (morningglory; [4]): 0 | Plant response rating, Morningglory (morningglory; [5]): 0 | Morningglory plant response rating (morningglory; [6]): 0 | Morningglory plant response rating (morningglory; [7]): 0 | Morningglory plant response rating (morningglory; [8]): 0 | Nutsedge plant response rating (purple nutsedge; [1]): 0 | Nutsedge plant response rating (purple nutsedge; [2]): 0 | Nutsedge plant response rating (purple nutsedge; [3]): 0 | Plant response rating, Nutsedge (purple nutsedge; [4]): 0 | Plant response rating, Nutsedge (purple nutsedge; [5]): 0 | Nutsedge plant response rating (purple nutsedge; [7]): 0 | Nutsedge plant response rating (purple nutsedge; [8]): 0 | Giant foxtail plant response rating (giant foxtail; [1]): 0 | Giant foxtail plant response rating (giant foxtail; [2]): 0 | Giant foxtail plant response rating (giant foxtail; [3]): 0 | Plant response rating, Giant foxtail (giant foxtail; [4]): 0 | Plant response rating, Giant foxtail (giant foxtail; [5]): 3 | Giant foxtail plant response rating (giant foxtail; [6]): 4 | Giant foxtail plant response rating (giant foxtail; [7]): 0 | Giant foxtail plant response rating (giant foxtail; [8]): 0 | Wheat plant response rating (wheat; [1]): 0 | Wheat plant response rating (wheat; [2]): 0 | Wheat plant response rating (wheat; [3]): 0 | Plant response rating, Wheat (wheat; [4]): 0 | Plant response rating, Wheat (wheat; [5]): 0 | Wheat plant response rating (wheat; [6]): 0 | Wheat plant response rating (wheat; [7]): 0 | Wheat plant response rating (wheat; [8]): 0 | S. Flatsedge plant response rating (smallflower flatsedge; [1]): 0 | S. Flatsedge plant response rating (smallflower flatsedge; [9]): 0 | S. Flatsedge plant response rating (smallflower flatsedge; [10]): 0 | S. Flatsedge plant response rating (smallflower flatsedge; [11]): 0 | Sugarbeets plant response rating (sugar beet; [1]): 0 | Sugarbeets plant response rating (sugar beet; [2]): 0 | Sugarbeets plant response rating (sugar beet; [3]): 0 | Plant response rating, Sugarbeets (sugar beet; [4]): 0 | Plant response rating, Sugarbeets (sugar beet; [5]): 0 | Sugarbeets plant response rating (sugar beet; [6]): 0 | Sugarbeets plant response rating (sugar beet; [7]): 0 | Sugarbeets plant response rating (sugar beet; [8]): 0 | Velvetleaf plant response rating (velvetleaf; [1]): 0 | Velvetleaf plant response rating (velvetleaf; [2]): 0 | Velvetleaf plant response rating (velvetleaf; [3]): 0 | Plant response rating, Velvetleaf (velvetleaf; [4]): 0 | Plant response rating, Velvetleaf (velvetleaf; [5]): 0 | Velvetleaf plant response rating (velvetleaf; [6]): 0 | Velvetleaf plant response rating (velvetleaf; [7]): 0 | Velvetleaf plant response rating (velvetleaf; [8]): 0 | Redroot pigweed plant response rating (pigweed; [1]): 0 | Redroot pigweed plant response rating (pigweed; [2]): 0 | Redroot pigweed plant response rating (pigweed; [3]): 0 | Plant response rating, Redroot pigweed (pigweed; [4]): 0 | Plant response rating, Redroot pigweed (pigweed; [5]): 0 | Redroot pigweed plant response rating (pigweed; [6]): 0 | Redroot pigweed plant response rating (pigweed; [7]): 0 | Redroot pigweed plant response rating (pigweed; [8]): 0 | Bedstraw plant response rating (bedstraw; [1]): 0 | Bedstraw plant response rating (bedstraw; [2]): 0 | Bedstraw plant response rating (bedstraw; [3]): 0 | Plant response rating, Bedstraw (bedstraw; [4]): 0 | Plant response rating, Bedstraw (bedstraw; [5]): 0 | Bedstraw plant response rating (bedstraw; [7]): 0 | Bedstraw plant response rating (bedstraw; [8]): 0 | Ducksalad plant response rating (duck salad; [1]): 0 | Ducksalad plant response rating (duck salad; [9]): 0 | Ducksalad plant response rating (duck salad; [10]): 0 | Ducksalad plant response rating (duck salad; [11]): 0 | Blackgrass plant response rating (blackgrass; [1]): 0 | Blackgrass plant response rating (blackgrass; [2]): 0 | Blackgrass plant response rating (blackgrass; [3]): 0 | Plant response rating, Blackgrass (blackgrass; [4]): 0 | Plant response rating, Blackgrass (blackgrass; [5]): 0 | Blackgrass plant response rating (blackgrass; [6]): 0 | Blackgrass plant response rating (blackgrass; [7]): 0 | Blackgrass plant response rating (blackgrass; [8]): 0 | Barnyardgrass plant response rating (bamyardgrass; [1]): 0 | Barnyardgrass plant response rating (bamyardgrass; [9]): 0 | Barnyardgrass plant response rating (bamyardgrass; [10]): 0 | Barnyardgrass plant response rating (bamyardgrass; [11]): 0 | Rice plant response rating (rice; [1]): 0 | Rice plant response rating (rice; [9]): 0 | Rice plant response rating (rice; [10]): 0 | Rice plant response rating (rice; [11]): 0
